This passage reports IC50 and ED50 results from patent publication US5236948A, “Sulphonamide derivatives” (Imperial Chemical Industries PLC, priority 1991, dated 1993).

The target of experiment [1] is T1, 5-LO (Homo sapiens, UniProt P09917).
T1 construct: incubating a test compound with heparinised human blood; endogenous in cells; host or cells: blood cells in heparinised human whole blood
T1 sequence (P09917 1-674): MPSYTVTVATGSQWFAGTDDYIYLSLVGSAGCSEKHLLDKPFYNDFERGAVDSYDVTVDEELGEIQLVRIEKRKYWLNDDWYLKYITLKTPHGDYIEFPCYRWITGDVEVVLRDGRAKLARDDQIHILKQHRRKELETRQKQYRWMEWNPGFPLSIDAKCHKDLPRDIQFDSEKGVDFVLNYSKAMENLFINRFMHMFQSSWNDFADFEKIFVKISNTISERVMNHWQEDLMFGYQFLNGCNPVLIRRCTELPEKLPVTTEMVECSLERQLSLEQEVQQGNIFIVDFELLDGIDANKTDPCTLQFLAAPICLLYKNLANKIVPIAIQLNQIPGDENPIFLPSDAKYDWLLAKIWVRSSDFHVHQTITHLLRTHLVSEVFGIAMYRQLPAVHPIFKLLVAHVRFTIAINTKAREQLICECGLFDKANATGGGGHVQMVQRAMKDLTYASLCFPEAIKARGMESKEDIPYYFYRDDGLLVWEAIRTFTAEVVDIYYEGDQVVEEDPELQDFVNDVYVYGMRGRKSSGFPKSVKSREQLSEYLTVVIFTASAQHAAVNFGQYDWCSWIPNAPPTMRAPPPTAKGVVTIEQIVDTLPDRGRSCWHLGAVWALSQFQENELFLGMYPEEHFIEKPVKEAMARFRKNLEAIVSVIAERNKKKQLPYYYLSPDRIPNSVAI
Briefly: Test a) in vitro inhibition of LTB4 formation in heparinised human blood challenged with A23187 (radioimmunoassay). In kind it is cell-based. How it is done:
a) An in vitro assay system involving incubating a test compound with heparinised human blood, prior to challenge with the calcium ionophore A23187 and then indirectly measuring the inhibitory effects on 5-LO by assaying the amount of LTB4 using specific radioimmunoassays described by Carey and Forder (Prostaglandins, Leukotrienes Med., 1986, 22, 57; Prostaglandins, 1984, 28, 666; Brit. J. Pharmacol., 1985, 84, 34P) which involve the use of a protein-LTB4 conjugate produced using the procedure of Young et alia (Prostaglandins, 1983, 26(4), 605-613). The effects of a test compound on the enzyme cyclooxygenase (which is involved in the alternative metabolic pathway for arachidonic acid and gives rise to prostaglandins, thromboxanes and related metabolites) may be measured at the same time using the specific radioimmunoassay for thromboxane B2 (TxB2) described by Carey and Forder (see above). This test provides an indication of the effects of a test compound against 5-LO and also cyclooxygenase in the presence of blood cells and proteins. It permits the selectivity of the inhibitory effect on 5-LO or cyclooxygenase to be assessed.

The target of experiment [2] is T2, 5-LO (Rattus norvegicus, UniProt P12527).
T2 construct: an air pouch generated within the subcutaneous tissue of the back of male rats; endogenous in cells; host or cells: cells of the zymosan-inflamed air pouch of live male rats
T2 sequence (P12527 1-673): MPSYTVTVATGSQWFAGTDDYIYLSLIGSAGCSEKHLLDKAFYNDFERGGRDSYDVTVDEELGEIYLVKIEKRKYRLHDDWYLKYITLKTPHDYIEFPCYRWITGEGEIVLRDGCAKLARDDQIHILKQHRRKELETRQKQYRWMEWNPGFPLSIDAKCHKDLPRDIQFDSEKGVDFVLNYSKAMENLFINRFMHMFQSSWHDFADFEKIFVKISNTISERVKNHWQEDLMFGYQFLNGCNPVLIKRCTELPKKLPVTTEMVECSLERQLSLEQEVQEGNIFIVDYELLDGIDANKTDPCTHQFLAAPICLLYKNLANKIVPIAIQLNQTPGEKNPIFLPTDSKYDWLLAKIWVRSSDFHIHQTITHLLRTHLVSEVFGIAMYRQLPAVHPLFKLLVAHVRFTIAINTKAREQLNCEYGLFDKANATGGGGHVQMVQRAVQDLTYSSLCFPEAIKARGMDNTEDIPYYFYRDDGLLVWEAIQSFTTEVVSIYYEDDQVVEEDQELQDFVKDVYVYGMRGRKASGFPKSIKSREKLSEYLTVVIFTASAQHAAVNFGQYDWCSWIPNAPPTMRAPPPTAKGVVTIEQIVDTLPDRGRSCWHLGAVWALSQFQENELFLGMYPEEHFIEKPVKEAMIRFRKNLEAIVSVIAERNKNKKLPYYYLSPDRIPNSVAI
Briefly: Test c) in vivo zymosan-induced LTB4 liberation in rat air pouch, oral compound. To be noted: 3 h; test c). Here is the method:
c) An in vivo system involving measuring the effects of a test compound administered orally against the liberation of LTB4 induced by zymosan within an air pouch generated within the subcutaneous tissue of the back of male rats. The rats are anaesthetised and air pouches are formed by the injection of sterile air (20 ml). A further injection of air (10 ml) is similarly given after 3 days. At 6 days after the initial air injection the test compound is administered (usually orally as the suspension produced when a solution of the test compound in dimethylsulphoxide is added to hydroxypropylmethylcellulose), followed by the intrapouch injection of zymosan (1 ml of a 1% suspension in physiological saline). After 3 hours the rats are killed, the air pouches are lavaged with physiological saline, and the specific radioimmunoassay described above is used to assay LTB4 in the washings. This test provides an indication of inhibitory effects against 5-LO in an inflammatory milieu.

The structures appear in SMILES notation.

For `COC1(c2cccc(Sc3ccc(NS(C)(=O)=O)c(Cl)c3)c2)CCOCC1` [N-{2-chloro-4-[3-(4-methoxytetrahydropyran-4-yl)phenylthio]phenyl)-methanesulphonamide], on 5-LO [1], the IC50 – broadly, the concentration that inhibits the measured activity by half – came to 1000 nM. At 5-LO [2], the ED50 – broadly, the dose that gives a 50% effect, or the effect in half of the subjects – is 1.5 mg/kg.
For `COC1(c2cccc(Sc3ccc(N(C)S(C)(=O)=O)cc3Cl)c2)CCOCC1` [N-{3-chloro-4-[3-(4-methoxytetrahydropyran-4-yl)phenylthio]phenyl}-N-methylmethanesulphonamide] the same measures were 90 nM and 1 mg/kg.
